Source: US20160228452A1, “TREATMENT OF METABOLIC DISEASES BY INHIBTION OF HTR2A OR HTR3” (Korea Advanced Institute of Science and Technology, priority 2014, published 2016)
Entries after “also recorded” stand apart in the source; their conditions may differ.

How the values were obtained:
[1] = High-fat-diet-induced obesity in mice: growth curves, body weight and eWAT mass; type: in vivo; conditions: PCPA 300 mg/kg daily i.p., 10 weeks, HFD-fed mice vs HFD-fed control
Source text: The generation of Tph^flox/flox mice, Adipoq-cre mice, and aP2-CreERT2 mice has previously been reported^17,30,31. C57BL/6J mice, Htr3a-targeted KO mice (B6.129X1-Htr3a^tm1jul/J, Htr3a KO) and leptin-deficient ob/ob mice (B6.V-Lep^ob/J) were purchased from the Jackson Laboratory (Bar Harbor, Me., USA). To create the adipose tissue-specific Tph1 KO mice, Tph1^flox/flox mice were crossed with Adipoq-Cre mice (Tph1 FKO mice) and aP2-CreERT2 mice (Tph1 AFKO mice). The mice were housed in climate-controlled, specific pathogen-free (SPF) barrier facilities under a 12-h light-dark cycle, and chow and water were provided ad libitum. The Institutional Animal Care and Use Committee at the Korea Advanced Institute of Science and Technology approved the experimental protocols for this study. Htr3a KO mice and Tph1^flox/flox mice were backcrossed with C57BL/6J mice for more than 10 generations. Cre-recombination of 6-week-old Tph1 AFKO mice was induced by intraperitoneal (IP) injection of 5 doses of 2 mg of tamoxifen (Sigma) for 1 week. We fed male mice (aged 8˜10 weeks) either on SCD (standard chow diet; 12% fat calories, Purina Laboratory Rodent Diets 38057) or HFD (60% fat calories, Research Diets D12492). PBS or 300 mg/kg PCPA was administered as a daily intraperitoneal injection. LP-533401 was dissolved in PEG-400 and 5% dextrose (40:60 ratio). Vehicle or 30 mg/kg LP-533401 was administered daily with a feeding needle. We randomly divided C57BL/6J mice into 2-4 groups. For transgenic mice, we compared data between KO mice and their WT littermates. No blinding was done.

[2] = Glucose tolerance test and insulin tolerance test; type: in vivo, mice; conditions: PCPA-treated HFD-fed mice vs HFD-fed control
Description: For the glucose tolerance tests, the mice were administered 2 g/kg D-glucose in PBS after overnight fasting. For the insulin tolerance tests, the mice were intraperitoneally injected with insulin (0.75 U/kg) after being fasted for 4 h. The blood glucose levels in blood samples obtained from tail veins 0, 15, 30, 45, 60, 90 and 120 min after injection were measured using a Gluco DR Plus glucometer (Allmedicus).

[3] = Blood chemistry analysis (serum cholesterol, LDL cholesterol, FFA, leptin by ELISA); type: in vivo; conditions: PCPA 300 mg/kg, 6 weeks, HFD-fed mice vs HFD-fed control
Description: Tissue serotonin was extracted by homogenization in extraction buffer containing 0.02% ascorbic acid in 0.1 M perchloric acid followed by centrifugation. The serotonin levels in the supernatants were measured via the liquid chromatography-mass spectrometry method. Serum leptin (Enzo Life Science, Farmingdale, N.Y., USA), LDL-cholesterol (Waco), and FFA (Biovision, Mountain View, Calif., USA) were measured using enzyme-linked immunosorbent assay (ELISA) kits.

[4] = Metabolic analysis by indirect calorimetry (Oxymax/CLAMS); type: in vivo, mice
Description: (§1) To measure the metabolic rate, the mice were housed individually in an eight-chamber, open-circuit Oxymax/CLAMS (Columbus Instruments Comprehensive Lab Animal Monitoring System) system as previously described^33. Each mouse was assessed for 72 h in the fed state to determine their metabolic rates. PET imaging was performed using a microPET R4 scanner (Concorde Microsystems, Siemens) as previously described^34.

eWAT, iWAT and BAT = assay: Histological analysis of adipose tissues (H&E, Ucp1/Plin1 immunohistochemistry, TEM); type: in vivo, mice
Description: Inguinal, epididymal and interscapular adipose tissues were harvested, fixed in 4% (w/v) paraformaldehyde in PBS and embedded in paraffin. Then, 5-μm-thick tissue sections were deparaffinized, rehydrated and used for hematoxylin and eosin (H&E) staining, immunohistochemistry and immunofluorescence. For antigen retrieval, the slides were submerged in 10 mM sodium citrate (pH 6.0) and heated to 95° C. for 20 minutes. Visualization of Ucp1 and Plin1 was performed using a VECTASTAIN ABC Kit (PK-4001, Vector Laboratories, Burlingame, Calif., USA) according to the manufacturer's instructions. Briefly, the slides were incubated with BLOXALL Blocking solution (SP-6000, Vector Laboratories) followed by incubation with 2% normal goat serum for 30 min at room temperature to block non-specific binding. Sections were incubated with primary antibody against Ucp1 (ab10983, Abcam) or Plin1 (ab3526, Abcam) for 1 h at room temperature followed by 30-min incubation with a species-specific, biotinylated secondary antibody. The slides were incubated with Vectastain ABC-AP reagent for 30 min and then incubated with […] substrate (DAB, SK-4100, Vector Laboratories) for visualization. The stains and antibodies used for the immunofluorescence staining included BODIPY (BODIPY®493/503, Invitrogen), anti-5HT (ab10385, Abcam) and DAPI (D9542, Sigma). Electron microscopy images of BAT were obtained by transmission electron microscopy (Tecnai Spirit TEM) as previously described^35. Briefly, the BAT was first fixed with 2.5% glutaraldehyde, and after fixation, ultra-thin sections were cut, stained with uranyl acetate and lead citrate and then examined under an electron microscope.

[5] = system: genes involved in lipid metabolism and thermogenesis; assay: Real-time RT-PCR of mouse adipose tissues; type: in vivo, mice
Description: Total RNA was extracted from the mouse tissues or cell lines using TRIzol reagent (Invitrogen) according to the manufacturer's protocol. After TURBO DNase (Invitrogen) treatment, 2 μg of total RNA was used to generate complementary DNA with Superscript III reverse transcriptase (Invitrogen). To analyze gene expression, real-time PCR was performed with a ViiA 7 Real-Time PCR system (Applied Biosystems) and the Power SYBR Green PCR master mix (Applied Biosystems). Relative quantification was based on the ddCt method, and ActB was used as an endogenous control (internal control).

BAT = assay: 18F-FDG PET/CT glucose utilization of BAT; type: in vivo; conditions: PCPA-treated HFD-fed mice vs HFD-fed control
Description: as §1

[6] = intraventricular injection, reference 19; cited from earlier work
[7] = PCPA-treated vs control mice, HFD for 6 weeks

SMILES: N[C@@H](Cc1ccc(Cl)cc1)C(=O)O (racemic) [PCPA, p-chlorophenylalanine]
- body weight gain [1]: decreased weight gain; also recorded: reduction in body weight gain
- eWAT mass [1]: reduced eWAT mass; also recorded: decreased eWAT
- glucose tolerance ([2]; 2 g/kg glucose after overnight fasting): improved glucose tolerance
- insulin sensitivity / insulin resistance ([2]; insulin 0.75 U/kg after 4 h fasting): improved; also recorded: reduced insulin resistance
- blood level of LDL cholesterol [3]: decreased
- blood level of free fatty acid (FFA) [3]: decreased; also recorded: reduced
- blood level of leptin [3]: decreased; also recorded: reduced
- serum cholesterol [3]: reduced
- metabolic rates (metabolic cage data) on standard chow diet ([4]; PCPA 300 mg/kg for 6 weeks vs vehicle, SCD-fed mice): did not affect the metabolic rates; also recorded: no significant differences
- O2 consumption [4, 7]: increased
- carbon dioxide production (VCO2) [4, 7]: increased carbon dioxide production
- energy expenditure [4, 7]: increased energy expenditure
- heat production [4, 7]: increased
- iWAT adipocyte size, HFD vs SCD within PCPA-treated mice (eWAT, iWAT and BAT; 18-week-old PCPA-treated mice, HFD for 10 weeks compared with PCPA-treated mice fed an SCD): decreased adipocyte size
- number and size of mitochondria in BAT (TEM) (eWAT, iWAT and BAT; HFD-fed mice with PCPA treatment for 6 weeks): increased size and number of mitochondria
- eWAT cellular structure / cell damage (Plin1 staining) (eWAT, iWAT and BAT; PCPA 300 mg/kg for 6 weeks, SCD or HFD): normal cellular structures; also recorded: No gross cell damage was observed
- browning of iWAT (Ucp1-expressing multilocular cells) (eWAT, iWAT and BAT; PCPA-treated mice): brown adipocyte-like multilocular cells that expressed Ucp1 were observed
- density of the cristae in BAT mitochondria (eWAT, iWAT and BAT; PCPA-treated mice): increased
- iWAT adipocyte size (eWAT, iWAT and BAT; PCPA-treated mice): decreased
- multilocular adipocytes in BAT (eWAT, iWAT and BAT; PCPA-treated mice, HFD): increased multilocular adipocytes
- BAT lipid droplet size (eWAT, iWAT and BAT; PCPA-treated vs control BAT, regardless of diet): decreased lipid droplet sizes
- eWAT adipocyte size (eWAT, iWAT and BAT; PCPA-treated vs control mice, SCD or HFD): decreased adipocyte size; also recorded: did not increase the adipocyte size
- Dio2 mRNA level in BAT ([5]; PCPA 300 mg/kg, 6 weeks): highest increase
- thermogenic gene expression in BAT ([5]; PCPA 300 mg/kg, 6 weeks): increased thermogenic gene expression
- Dio2 mRNA level in iWAT ([5]; PCPA-treated mice fed an HFD): increased
- Ucp1 mRNA level in iWAT ([5]; PCPA-treated mice fed an HFD): increased
- expression of lipogenic (triglyceride storage) genes in eWAT ([5]; PCPA-treated vs control mice, both SCD and HFD): suppressed expression
- glucose (18F-FDG) uptake into BAT (BAT): significantly increased glucose uptake
- appetite [6]: reduce appetite
- body weight [6]: increase body weight
